How the values were obtained:
[1] = molecular target: Beta-2 adrenergic receptor (Homo sapiens, UniProt P07550); test: DRUGMATRIX: Adrenergic beta2 radioligand binding (ligand: [3H] CGP-12177); type: cell membranes, Membrane; conditions: cho; Not Active = under 50% inhibition at 10 µM
[2] = DRUGMATRIX: GABAA, Chloride Channel, TBOB radioligand binding (ligand: [3H] TBOB); type: cell membranes, Rattus norvegicus, Wistar, Cerebral cortex, Membrane; conditions: Not Active = under 50% inhibition at 10 µM
[3] = molecular target: T1, C-C chemokine receptor type 4 (Homo sapiens, UniProt P51679); type: cell membranes, Chem-1, Membrane; conditions: chem-1; also: in other assays of this panel Not Active means under 50% inhibition at 10 µM
T1 sequence (P51679 whole entry): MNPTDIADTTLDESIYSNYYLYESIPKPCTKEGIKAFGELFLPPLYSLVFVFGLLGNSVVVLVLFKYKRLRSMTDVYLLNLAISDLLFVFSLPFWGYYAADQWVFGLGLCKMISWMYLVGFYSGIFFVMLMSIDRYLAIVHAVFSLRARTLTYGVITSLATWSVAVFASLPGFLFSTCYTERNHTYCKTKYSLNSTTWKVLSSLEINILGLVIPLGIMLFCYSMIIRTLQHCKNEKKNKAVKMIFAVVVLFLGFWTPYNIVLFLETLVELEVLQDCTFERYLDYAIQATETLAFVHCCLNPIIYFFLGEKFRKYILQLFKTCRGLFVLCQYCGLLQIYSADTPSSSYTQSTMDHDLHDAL

[4] = DRUGMATRIX: Sodium/nucleoside co-transporter radioligand binding (ligand: nitrobenzylthioinosine); type: cell membranes, Cavia porcellus, Dunkin-Hartley, Cerebral cortex, Membrane; conditions: Not Active = under 50% inhibition at 10 µM
Adenosine receptor A1 = molecular target: T2, Adenosine receptor A1 (Homo sapiens, UniProt P30542); type: cell membranes, CHO, Membrane; conditions: cho;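 also: radioligand binding assay at the adenosine A1 receptor, with DPCPX serving as the labelled ligand; in other assays of this panel Not Active means under 50% inhibition at 10 µM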
T2 sequence (P30542 whole entry): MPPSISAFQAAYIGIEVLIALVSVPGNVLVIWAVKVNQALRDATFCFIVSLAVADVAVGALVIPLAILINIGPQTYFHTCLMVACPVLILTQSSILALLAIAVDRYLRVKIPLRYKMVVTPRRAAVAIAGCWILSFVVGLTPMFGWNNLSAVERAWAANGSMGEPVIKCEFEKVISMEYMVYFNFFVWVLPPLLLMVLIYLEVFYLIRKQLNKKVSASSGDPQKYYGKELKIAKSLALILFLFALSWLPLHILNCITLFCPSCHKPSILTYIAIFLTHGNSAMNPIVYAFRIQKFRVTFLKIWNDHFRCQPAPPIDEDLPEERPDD

[5] = DRUGMATRIX: Calcium Channel Type L, Dihydropyridine radioligand binding (ligand: [3H] Nitrendipine); type: cell membranes, Rattus norvegicus, Wistar, Cerebral cortex, Membrane; conditions: Not Active = under 50% inhibition at 10 µM

CC1(C)O[C@@H]2C[C@H]3[C@@H]4CCC5=CC(=O)C=C[C@]5(C)[C@@]4(F)[C@@H](O)C[C@]3(C)[C@]2(C(=O)CO)O1 [TRIAMCINOLONE ACETONIDE]
Not Active: IC50 [1] | IC50 [2] | Ki [2] | IC50 [3] | IC50 [4] | Ki [4] | IC50 (Adenosine receptor A1) | IC50 [5] | Ki [5]

NS(=O)(=O)c1cc2c(cc1Cl)NC(C(Cl)Cl)NS2(=O)=O (stereo not given) [TRICHLORMETHIAZIDE]
Not Active: IC50 [1] | IC50 [2] | Ki [2] | IC50 [3] | IC50 [4] | Ki [4] | IC50 (Adenosine receptor A1) | IC50 [5] | Ki [5]

Cc1c(C)c2c(c(C)c1O)CCC(C)(COc1ccc(CC3SC(=O)NC3=O)cc1)O2 (stereo not given) [TROGLITAZONE]
Not Active: IC50 [1] | IC50 [2] | Ki [2] | IC50 [3] | IC50 [4] | Ki [4] | IC50 (Adenosine receptor A1) | IC50 [5] | Ki [5]

N[C@@H]1[C@H]2CN(c3nc4c(cc3F)c(=O)c(C(=O)O)cn4-c3ccc(F)cc3F)C[C@@H]12 [TROVAFLOXACIN]
Not Active: IC50 [1] | IC50 [2] | Ki [2] | IC50 [3] | IC50 [4] | Ki [4] | IC50 (Adenosine receptor A1) | IC50 [5] | Ki [5]

N#CC(C#N)=Cc1ccc(O)c(O)c1 [TYRPHOSTIN 23]
Not Active: IC50 [1] | IC50 [2] | Ki [2] | IC50 [3] | IC50 [4] | Ki [4] | IC50 (Adenosine receptor A1) | IC50 [5] | Ki [5]

CC[C@]1(O)C[C@H]2CN(CCc3c([nH]c4ccccc34)[C@@](C(=O)OC)(c3cc4c(cc3OC)N(C=O)[C@H]3[C@@](O)(C(=O)OC)[C@H](OC(C)=O)[C@]5(CC)C=CCN6CC[C@]43[C@@H]65)C2)C1 [VINCRISTINE]
Not Active: IC50 [1] | IC50 [2] | Ki [2] | IC50 [3] | IC50 [4] | Ki [4] | IC50 (Adenosine receptor A1) | IC50 [5] | Ki [5]

CCCOc1ccccc1-c1nc2nn[nH]c2c(=O)[nH]1 [ZAPRINAST]
Not Active: IC50 [1] | IC50 [2] | Ki [2] | IC50 [3] | IC50 [4] | Ki [4] | IC50 (Adenosine receptor A1) | IC50 [5] | Ki [5]

SODIUM NITROPRUSSIDE
Not Active: IC50 [1] | Ki [1] | IC50 [2] | Ki [2] | IC50 [3] | Ki [3] | IC50 [4] | Ki [4] | IC50 (Adenosine receptor A1) | Ki (Adenosine receptor A1) | IC50 [5] | Ki [5]
